Data set [1] relates to human mobilized peripheral blood CD34^+ HSCs. The data set is described as follows: Fold change in CD34+ cell number (trypan blue count) 96 hours after Nucleofection. It counts as cell-based. As to conditions: Nucleofection with wild type Cas9 and CCR5-U43 gRNA plasmid DNA + vehicle treatment (no UM171). The procedure: (§1) Human CD34^+ HSCs cells from mobilized peripheral blood (AllCells) were thawed into StemSpan Serum-Free Expansion Medium (SFEM™, StemCell Technologies) containing 100 ng/mL each of the following cytokines: human stem cell factor (SCF), thrombopoietin (TPO), and flt-3 ligand (FL) (all from Peprotech). Cells were grown for 3 days in a humidified incubator and 5% CO2 20% O2. […] The published use of UM171 involved prolonged exposure of HSCs to the small molecule for ex vivo expansion of HSCs. In the current experiment, HSCs were exposed to UM171 for 2 hours before and 24 hours after delivery of Cas9 and gRNA plasmid DNA. This UM171 treatment protocol was based on pilot studies performed by the inventors that indicated acute pre-treatment with UM171 before lentivirus vector mediated gene delivery improved HSC viability compared to HSCs treated with vehicle (dimethylsulfoxide, DMSO, Sigma) alone. […] At 96 hours after Nucleofection™, CD34^+ cells were counted for by trypan blue exclusion and divided into 3 portions for the following analyses: a) flow cytometry analysis for assessment of viability by co-staining with 7-Aminoactinomycin-D (7-AAD) and allophycocyanin (APC)-conjugated Annexin-V antibody (ebioscience); b) flow cytometry analysis for maintenance of HSC phenotype (after co-staining with phycoerythrin (PE)-conjugated anti-human CD34 antibody and fluorescein isothicyanate (FITC)-conjugated anti-human CD90, both from BD Bioscience; c) hematopoietic colony forming cell (CFC) analysis by plating 1500 cells in semi-solid methylcellulose based Methocult medium (StemCell Technologies) that supports differentiation of erythroid and myeloid blood cell colonies from HSCs and serves as a surrogate assay to evaluate HSC multipotency and differentiation potential ex vivo; d) genomic DNA analysis for detection of editing at the CCR5 locus. […]

Data set [2] has the same test system. Briefly: Viability by 7-AAD / Annexin-V flow cytometry 96 hours after Nucleofection. As to conditions: Nucleofected with Cas9 and CCR5 gRNA plasmids after pre-treatment with UM171; 96 hours. The data set is classed as cell-based. The procedure: as §1
For data set [3] the test system is unchanged. The data set is described as follows: Maintenance of HSC phenotype (CD34/CD90 co-staining, flow cytometry). It counts as cell-based. As to conditions: Cas9 and CCR5 gRNA plasmids after pre-treatment with UM171; 96 hours. As for the experimental part:
Human CD34^+ HSCs cells from mobilized peripheral blood (AllCells) were thawed into StemSpan Serum-Free Expansion Medium (SFEM™, StemCell Technologies) containing 100 ng/mL each of the following cytokines: human stem cell factor (SCF), thrombopoietin (TPO), and flt-3 ligand (FL) (all from Peprotech). Cells were grown for 3 days in a humidified incubator and 5% CO2 20% O2. […] The published use of UM171 involved prolonged exposure of HSCs to the small molecule for ex vivo expansion of HSCs. In the current experiment, HSCs were exposed to UM171 for 2 hours before and 24 hours after delivery of Cas9 and gRNA plasmid DNA. This UM171 treatment protocol was based on pilot studies performed by the inventors that indicated acute pre-treatment with UM171 before lentivirus vector mediated gene delivery improved HSC viability compared to HSCs treated with vehicle (dimethylsulfoxide, DMSO, Sigma) alone. After the 2-hour pretreatment with UM171, 1 million […] HSCs were Nucleofected™ with the Amaxa™ 4D Nucleofector™ device (Lonza), Program EO100 using components of the P3 Primary Cell 4D-Nucleofector Kit™ (Lonza) according to the manufacturer's instructions. […]

The next data set deals with CD34^+ HSCs. The data set is described as follows: Hematopoietic colony forming cell (CFC) assay in Methocult medium. It counts as cell-based, human. As to conditions: Nucleofection with wild-type Cas9 and CCR5-U43 gRNA plasmid DNA + vehicle (no UM171); two weeks. The procedure: Human CD34^+ HSCs cells from mobilized peripheral blood (AllCells) were thawed into StemSpan Serum-Free Expansion Medium (SFEM™, StemCell Technologies) containing 100 ng/mL each of the following cytokines: human stem cell factor (SCF), thrombopoietin (TPO), and flt-3 ligand (FL) (all from Peprotech). Cells were grown for 3 days in a humidified incubator and 5% CO2 20% O2. […] The published use of UM171 involved prolonged exposure of HSCs to the small molecule for ex vivo expansion of HSCs. In the current experiment, HSCs were exposed to UM171 for 2 hours before and 24 hours after delivery of Cas9 and gRNA plasmid DNA. This UM171 treatment protocol was based on pilot studies performed by the inventors that indicated acute pre-treatment with UM171 before lentivirus vector mediated gene delivery improved HSC viability compared to HSCs treated with vehicle (dimethylsulfoxide, DMSO, Sigma) alone. After the 2-hour pretreatment with UM171, 1 million […] HSCs were Nucleofected™ with the Amaxa™ 4D Nucleofector™ device (Lonza), Program EO100 using components of the P3 Primary Cell 4D-Nucleofector Kit™ (Lonza) according to the manufacturer's instructions. Briefly, one million cells were suspended in Nucleofector™ solution and the following amounts of plasmid DNA were added to the cell suspension: 1250 ng plasmid expressing CCR5 gRNA (CCR5-U43) from the human U6 promoter and 3750 ng plasmid expressing wild-type S. pyogenes Cas 9 transcriptionally regulated by the CMV promoter. After Nucleofection™, cells were plated into Stemspan-SFEM™ supplemented with SCF, TPO, FL and 40 nM UM171. After overnight incubation, HSCs were plated in Stemspan-SFEM™ plus cytokines without UM171. At 96 hours after Nucleofection™, CD34^+ cells were counted for by trypan blue exclusion and divided into 3 portions for the following analyses: a) flow cytometry analysis for assessment of viability by co-staining with 7-Aminoactinomycin-D (7-AAD) and allophycocyanin (APC)-conjugated Annexin-V antibody (ebioscience); b) flow cytometry analysis for maintenance of HSC phenotype (after co-staining with phycoerythrin (PE)-conjugated anti-human CD34 antibody and fluorescein isothicyanate (FITC)-conjugated anti-human CD90, both from BD Bioscience; c) hematopoietic colony forming cell (CFC) analysis by plating 1500 cells in semi-solid methylcellulose based Methocult medium (StemCell Technologies) that supports differentiation of erythroid and myeloid blood cell colonies from HSCs and serves as a surrogate assay to evaluate HSC multipotency and differentiation potential ex vivo; d) genomic DNA analysis for detection of editing at the CCR5 locus. Genomic DNA was extracted from HSCs 96 hours after Nucleofection™, and CCR5 locus-specific PCR reactions were performed.
To evaluate maintenance of HSC potency and differentiation potential, two weeks after plating CD34^+ HSCs in CFC assays, hematopoietic activity was quantified based on scoring the HSC progeny by enumerating the total number of hematopoietic colony forming units (CFU) and the frequencies of specific blood cell phenotypes, including: mixed myeloid/erythroid (Granulocyte-erythroid-monocyte macrophage, CFU-GEMM), myeloid (CFU-macrophage (M), granulocyte-macrophage (CFU-GM)) and erythroid (CFU-E) colonies. CD34^+ HSCs that were Nucleofected™ after UM171 pre-treatment maintained CFC potential compared to un-Nucleofected™ HSCs (Table 12). In contrast, CD34^+ HSCs that were Nucleofected™ without UM171 pre-treatment had reduced CFC potential (lower total CFC counts and reduced numbers of mixed-phenotype colonies (CFU-GEMM) and erythroid colonies (CFU-E)) in comparison to un-Nucleofected™ CD34^+ HSCs.
Human CD34^+ HSCs cells from mobilized peripheral blood (AllCells) were thawed into StemSpan Serum-Free Expansion Medium (SFEM, StemCell Technologies) containing 100 ng/mL each of the following cytokines: human stem cell factor (SCF), thrombopoietin (TPO), and flt-3 ligand (FL) (all from Peprotech). […]

Turning to “GCUGCCGCCCAGUGGGACUU (chemistry not given here) [CCR5-U43, S. pyogenes gRNA targeting CCR5; delivered as U6-promoter plasmid with Cas9 plasmid]”, the “Fold change in cell number of CD34^+ cells (96 hours vs. time 0 cell number)” value in data set [1] worked out at 0.6. The “viability (7-AAD^− AnnexinV^-)” value in data set [2] is given as over 93%. The “co-expression of CD34 and CD90” value in data set [3] was “maintained co-expression of CD34 and CD90”. In the data set on CD34^+ HSCs, the “Number of colony forming units: E” value is on record as 18 colony forming units per 1500 CD34^+ HSCs plated, the “Number of colony forming units: G” value is 22 colony forming units per 1500 CD34^+ HSCs plated, the “Number of colony forming units: GEMM” value was 1 colony forming units per 1500 CD34^+ HSCs plated and the “Number of colony forming units: GM” value is 1 colony forming units per 1500 CD34^+ HSCs plated. Also, in the data set on CD34^+ HSCs, the “Number of colony forming units: M” value is 6 colony forming units per 1500 CD34^+ HSCs plated and the “Number of colony forming units: Total” value is 28 colony forming units per 1500 CD34^+ HSCs plated.

For the origin of these results see patent US20180119123A1, “CRISPR/CAS-RELATED METHODS AND COMPOSITIONS FOR TREATING HIV INFECTION AND AIDS” (EDITAS MEDICINE, INC., priority 2015, published 2018).
